Measurements taken from patent publication US20260146062A1, “COMPOUNDS AND METHODS FOR TREATING DISEASES CAUSED BY VIRUSES AND BACTERIA” (The Trustees of Indiana University, priority 2022, published 2026).

System: SARS-CoV2 virus
Experiment: Inhibition of Viral Replication (plaque count)
Type: cell-based
Settings: with increased concentration of inhibitor

With `CC(C)C[C@H](NC(=O)c1cc2ccccc2[nH]1)C(=O)NC(C=O)Cc1ccc(F)cc1` (stereo partly shown) [Compound 112] the “inhibition ability (FIG. 6)” value was “increased inhibition ability of Compound No. 112 with increased concentration”.
